The record followed here is ChEMBL document CHEMBL1128832, “Substituted alkylpyridines as P3 ligands for the hydroxyethylpiperazine class of HIV-1 protease inhibitors: Improved pharmacokinetic profiles” (Bioorg Med Chem Lett, 1995).

SMILES strings stand for the structures.

The test system of one data set is MT4. Briefly: Antiviral activity in MT-4 human lymphoid cells infected with IIIB isolate by viral spread assay. It counts as functional. The note with it: read-out: CIC95.
The nature of data set [1]: Half life to reach the blood concentration was determined in dogs after oral administration (10 mg/kg) as a 0.05 M citric acid solution. It is filed as ADME, organism-based, Canis lupus familiaris. The settings on record: dog.
Data set [2] in a line: Area under curve was determined in dogs after oral administration (10 mg/kg) as a 0.05 M citric acid solution. It is filed as ADME, organism-based, Canis lupus familiaris. The note with it: dog, in vivo.
Data set [3] can be described thus: Maximum plasma concentration in dogs after oral administration (10 mg/kg) as a 0.05 M citric acid solution. It is filed as ADME, organism-based, Canis lupus familiaris. More on the design: dose 10 mg/kg, route oral. The settings on record: dog.
A short description of data set [4]: Maximum time taken to reach maximum blood concentration was determined in dogs after oral administration (10 mg/kg) as a 0.05 M citric acid solution. It is filed as ADME, organism-based, Canis lupus familiaris. The note with it: dog.
Data set [5] addresses Human immunodeficiency virus type 1 protease (Human immunodeficiency virus 1, UniProt Q72874). Briefly: In vitro inhibitory activity against HIV-1 protease enzyme.
The nature of data set [6]: Half life to reach the blood concentration was determined in dogs after oral administration (8 mg/kg) as a 0.05 M citric acid solution. It counts as ADME, organism-based, Canis lupus familiaris. The settings on record: dog.
A short description of data set [7]: Area under curve was determined in dogs after oral administration (8 mg/kg) as a 0.05 M citric acid solution. It counts as ADME, organism-based, Canis lupus familiaris. The note with it: dog, in vivo.
Data set [8] is described as follows: Maximum time taken to reach maximum blood concentration was determined in dogs after oral administration (8 mg/kg) as a 0.05 M citric acid solution. It counts as ADME, organism-based, Canis lupus familiaris. The settings on record: dog.
Data set [9] in a line: Maximum plasma concentration in dogs after oral administration (8 mg/kg) as a 0.05 M citric acid solution. More on the design: dose 8 mg/kg, route oral. It is filed as ADME, organism-based, Canis lupus familiaris. The note with it: dog.

In the case of `CC(C)c1cc(CN2CCN(C[C@@H](O)[C@H](Cc3ccccc3)NC(=O)O[C@@H]3CCS(=O)(=O)[C@@H]3C(C)C)[C@H](C(=O)NC(C)(C)C)C2)cc(C(C)C)n1`, in the data set on MT4, the IC95 worked out at 50 nM.
Regarding `Cc1cc(CN2CCN(C[C@@H](O)[C@H](Cc3ccccc3)NC(=O)O[C@@H]3CCS(=O)(=O)[C@@H]3C(C)C)[C@H](C(=O)NC(C)(C)C)C2)ccn1`, in [1], the half-life (in general, the time needed for the level to fall by half in the phase considered) was found to be 121 min. Moreover, the AUC – broadly, concentration integrated over time – in [2] is 7.4 µM·h. In the data set with MT4, the IC95 was 75 nM. The Cmax (in general, the maximum level reached in the sampled fluid or tissue) in data set [3] came to 8.6 µM. In addition, the Tmax – broadly, the time at which the peak concentration occurs – in data set [4] is 10 min.
Turning to `CCC(C)c1cc(CN2CCN(C[C@@H](O)[C@H](Cc3ccccc3)NC(=O)O[C@@H]3CCS(=O)(=O)[C@@H]3C(C)C)[C@H](C(=O)NC(C)(C)C)C2)ccn1` (stereo not given in full), the IC50 (in general, the concentration that gives 50% inhibition) in data set [5] came out at 1.2 nM. Besides, the IC95 in the data set with MT4 was 25 nM.
As to `CCc1cc(CN2CCN(C[C@@H](O)[C@H](Cc3ccccc3)NC(=O)O[C@@H]3CCS(=O)(=O)[C@@H]3C(C)C)[C@H](C(=O)NC(C)(C)C)C2)ccn1`, the half-life in data set [1] was 91 min. For the same compound, the AUC in data set [2] was 5.4 µM·h. Also, the IC95 with MT4 was determined as 81 nM. The same compound returned a Cmax in [3] of 4.1 µM. Moreover, in data set [4], the Tmax is 20 min.
As for `CC(C)c1cc(CN2CCN(C[C@@H](O)[C@H](Cc3ccccc3)NC(=O)O[C@@H]3CCS(=O)(=O)[C@@H]3C(C)C)[C@H](C(=O)NC(C)(C)C)C2)ccn1`, the IC95 in the data set on MT4 worked out at 67 nM.
In data set [6], `Cc1cc(CN2CCN(C[C@@H](O)[C@H](Cc3ccccc3)NC(=O)O[C@@H]3CCS(=O)(=O)[C@@H]3C(C)C)[C@H](C(=O)NC(C)(C)C)C2)cc(C)n1` displayed a half-life of 28 min. For the same compound, in data set [7], the AUC came to 4.5 µM·h. Also, in data set [8], the Tmax was 40 min. For the same compound, the concentration in data set [9] peaked (Cmax) at 3.6 µM. Also, the IC95 in the data set with MT4 was found to be 50 nM.
As for `CCc1cc(CN2CCN(C[C@@H](O)[C@H](Cc3ccccc3)NC(=O)O[C@@H]3CCS(=O)(=O)[C@@H]3C(C)C)[C@H](C(=O)NC(C)(C)C)C2)cc(CC)n1`, in [1], the half-life was 36 min. In data set [2], this compound registered an AUC of 2.9 µM·h. Also, in the data set on MT4, the IC95 was found to be 42 nM. The same compound returned a Cmax in [3] of 3 µM. Moreover, the Tmax in data set [4] is 25 min.
On to `CCCc1cc(CN2CCN(C[C@@H](O)[C@H](Cc3ccccc3)NC(=O)O[C@@H]3CCS(=O)(=O)[C@@H]3C(C)C)[C@H](C(=O)NC(C)(C)C)C2)ccn1`, for which, in [6], the half-life worked out at 21 min. The same compound showed an AUC in data set [7] of 1.5 µM·h. The Tmax in data set [8] is 25 min. This compound displayed a Cmax in data set [9] of 2.3 µM. Besides, in the data set with MT4, the IC95 stood at 12 nM.
Take `CC(C)[C@@H]1[C@H](OC(=O)N[C@@H](Cc2ccccc2)[C@H](O)CN2CCN(Cc3ccncc3)C[C@H]2C(=O)NC(C)(C)C)CCS1(=O)=O`: the half-life in data set [1] stood at 24 min. The compound also came in with an AUC in data set [2] of 4.3 µM·h. In addition, the IC95 with MT4 turned out to be 200 nM. In [3], the Cmax was found to be 6.7 µM. The Tmax in data set [4] was 25 min.
On to `CCCCc1cc(CN2CCN(C[C@@H](O)[C@H](Cc3ccccc3)NC(=O)O[C@@H]3CCS(=O)(=O)[C@@H]3C(C)C)[C@H](C(=O)NC(C)(C)C)C2)cc(CCCC)n1`, for which, in the data set with MT4, the IC95 was determined as 25 nM.
